Structures are written as SMILES.

IC50, Activity and viability data for 19 compounds are collected here from ChEMBL document CHEMBL4834439, “New indenopyrazole linked oxadiazole conjugates as anti-pancreatic cancer agents: Design, synthesis, in silico studies including 3D-QSAR analysis” (Bioorg Med Chem Lett, 2021).

One experiment has as its system MCF7. The experiment can be described thus: Antiproliferative activity against human MCF7 cells assessed as reduction in cell viability after 48 hrs by MTT assay. The format is functional, cell-based. The conditions noted are these: MCF7, 48 h.
In another experiment the test system is MDA-MB-231. The experiment can be described thus: Antiproliferative activity against human MDA-MB-231 cells assessed as reduction in cell viability after 48 hrs by MTT assay. The note with it: MDA-MB-231, 48 h. The format is functional, cell-based.
In experiment [1] the test system is PANC-1. The experiment can be described thus: Antiproliferative activity against human PANC-1 cells assessed as reduction in cell viability after 48 hrs by MTT assay. Format: functional, cell-based. The conditions noted are these: PANC-1, 48 h.
A further experiment concerns Caco-2. The experiment can be described thus: Antiproliferative activity against human Caco-2 cells assessed as reduction in cell viability after 48 hrs by MTT assay. The conditions noted are these: Caco-2, 48 h. The format is functional, cell-based.
For a further experiment, the system named is MRC5. The experiment can be described thus: Antiproliferative activity against human MRC5 cells assessed as reduction in cell viability after 48 hrs by MTT assay. Format: cell-based. The conditions noted are these: MRC5, 48 h.
Experiment [2] has as its system PANC-1. The experiment can be described thus: Induction of cell cycle arrest in human PANC-1 cells assessed as accumulation of cells at G0/G1 phase at 5 uM incubated for 48 hrs propidium iodide-A staining-based flow cytometric analysis (reference value: 48.58%). Format: functional.
Experiment [3] deals with PANC-1. The experiment can be described thus: Induction of cell cycle arrest in human PANC-1 cells assessed as accumulation of cells at S phase at 5 uM incubated for 48 hrs propidium iodide-A staining-based flow cytometric analysis (reference value: 44.71%). The format is functional.
The test system of experiment [4] is PANC-1. The experiment can be described thus: Induction of cell cycle arrest in human PANC-1 cells assessed as accumulation of cells at G2/M phase at 5 uM incubated for 48 hrs propidium iodide-A staining-based flow cytometric analysis (reference value: 6.71%). The format is functional.
Experiment [5] relates to PANC-1. The experiment can be described thus: Induction of cell cycle arrest in human PANC-1 cells assessed as accumulation of cells at G0/G1 phase at 10 uM incubated for 48 hrs propidium iodide-A staining-based flow cytometric analysis (reference value: 48.58%). The format is functional.
For experiment [6], the system named is PANC-1. The experiment can be described thus: Induction of cell cycle arrest in human PANC-1 cells assessed as accumulation of cells at S phase at 10 uM incubated for 48 hrs propidium iodide-A staining-based flow cytometric analysis (reference value: 44.71%). The format is functional.
Experiment [7] deals with PANC-1. The experiment can be described thus: Induction of cell cycle arrest in human PANC-1 cells assessed as accumulation of cells at G2/M phase at 10 uM incubated for 48 hrs propidium iodide-A staining-based flow cytometric analysis (reference value: 6.71%). The format is functional.
Experiment [8] relates to PANC-1. The experiment can be described thus: Induction of apoptosis in human PANC-1 cells assessed as viable cells at 5 uM incubated for 48 hrs by annexin V FITC and propidium iodide staining based flow cytometry analysis (reference value: 99.5%). Format: functional. The note with it: read-out: Activity.
Experiment [9] deals with PANC-1. The experiment can be described thus: Induction of apoptosis in human PANC-1 cells assessed as late apoptotic cells at 5 uM incubated for 48 hrs by annexin V FITC and propidium iodide staining based flow cytometry analysis (reference value: 0.1%). The format is functional.
The subject of experiment [10] is PANC-1. The experiment can be described thus: Induction of apoptosis in human PANC-1 cells assessed as necrotic cells at 5 uM incubated for 48 hrs by annexin V FITC and propidium iodide staining based flow cytometry analysis (reference value: 0%). The format is functional.
For experiment [11], the system named is PANC-1. The experiment can be described thus: Induction of apoptosis in human PANC-1 cells assessed as viable cells at 10 uM incubated for 48 hrs by annexin V FITC and propidium iodide staining based flow cytometry analysis (reference value: 99.5%). The format is functional. The conditions noted are these: read-out: Activity.
In experiment [12] the test system is PANC-1. The experiment can be described thus: Induction of apoptosis in human PANC-1 cells assessed as early apoptotic cells at 10 uM incubated for 48 hrs by annexin V FITC and propidium iodide staining based flow cytometry analysis (reference value: 0.2%). The format is functional.
In experiment [13] the test system is PANC-1. The experiment can be described thus: Induction of apoptosis in human PANC-1 cells assessed as late apoptotic cells at 10 uM incubated for 48 hrs by annexin V FITC and propidium iodide staining based flow cytometry analysis (reference value: 0.1%). Format: functional.
The test system of experiment [14] is PANC-1. The experiment can be described thus: Induction of apoptosis in human PANC-1 cells assessed as necrotic cells at 10 uM incubated for 48 hrs by annexin V FITC and propidium iodide staining based flow cytometry analysis (reference value: 0%). The format is functional.
The subject of experiment [15] is PANC-1. The experiment can be described thus: Induction of apoptosis in human PANC-1 cells assessed as increase in caspase 3 activity. The format is functional, cell-based. The note with it: dose 5-10 µM.
Experiment [16] has as its system PANC-1. The experiment can be described thus: Induction of apoptosis in human PANC-1 cells assessed as increase in caspase 9 activity. The format is functional, cell-based. The note with it: dose 5-10 µM.
In experiment [17] the test system is PANC-1. The experiment can be described thus: Induction of apoptosis in human PANC-1 cells assessed as early apoptotic cells at 5 uM incubated for 48 hrs by annexin V FITC and propidium iodide staining based flow cytometry analysis (reference value: 0.2%). The format is functional.

With `COc1cc2c(cc1OC)-c1n[nH]c(-c3nnc(/C=C/c4ccc([N+](=O)[O-])cc4)o3)c1C2`, the concentration for half-maximal inhibition (IC50) in the experiment with MCF7 is 20.2 µM; with MDA-MB-231 it was 16.3 µM; in the experiment with PANC-1 [1], 4.3 µM; with Caco-2 it was 20 µM; with MRC5, 49 µM. Moreover, the Activity in the experiment on PANC-1 [2] was determined as 42.09%; in the experiment on PANC-1 [3], 53.38%; in the experiment on PANC-1 [4], 4.26%; in the experiment with PANC-1 [5], 24.94%; in the experiment on PANC-1 [6] it was 73.06%; in the experiment with PANC-1 [7], 2%. The Activity with PANC-1 [9] is 27.5%; with PANC-1 [10], 1.2%; in the experiment on PANC-1 [12], 2.5%; in the experiment on PANC-1 [13], 31.2%; with PANC-1 [14] it was 10.3%; with PANC-1 [15], “Dose-Dependent Effect”. The Activity entry in the experiment with PANC-1 [16] is “Dose-Dependent Effect”. Moreover, in the experiment with PANC-1 [8], the viability at 5 µM was 64.1%. Further, the viability at 10 µM in the experiment on PANC-1 [11] turned out to be 52.2%.
For the compound `COc1ccc(/C=C/c2nnc(-c3[nH]nc4c3Cc3ccccc3-4)o2)cc1`, the 50% inhibitory concentration (IC50) in the experiment with MCF7 was found to be 17.1 µM; in the experiment on MDA-MB-231, 13.5 µM; in the experiment on PANC-1 [1], 20.6 µM; in the experiment with Caco-2, 39.7 µM; with MRC5, 38 µM.
The corresponding values for `COc1cc(/C=C/c2nnc(-c3[nH]nc4c3Cc3ccccc3-4)o2)cc(OC)c1OC` are 37.2 µM, 18.4 µM, 24.2 µM, 31.7 µM and 55 µM.
Consider `COc1cc(/C=C/c2nnc(-c3[nH]nc4c3Cc3cc(F)ccc3-4)o2)cc(OC)c1OC`, for which the IC50 in the experiment with MCF7 stood at 44.8 µM; in the experiment on MDA-MB-231 it was 17.2 µM; in the experiment with PANC-1 [1] it was 15.5 µM; in the experiment on Caco-2 it was 16.1 µM; in the experiment with MRC5, 61 µM.
For the compound `COc1ccc2c(c1)Cc1c-2n[nH]c1-c1nnc(/C=C/c2ccc([N+](=O)[O-])cc2)o1`, the IC50 turned out to be 20.6 µM in the experiment with MCF7; 21.3 µM with MDA-MB-231; 7.4 µM in the experiment on PANC-1 [1]; 57.1 µM in the experiment on Caco-2; 41 µM with MRC5. Further, the Activity in the experiment on PANC-1 [2] is on record as 36.55%; in the experiment on PANC-1 [3] it was 46.6%; in the experiment on PANC-1 [4], 17.85%; in the experiment with PANC-1 [5] it was 32.78%; with PANC-1 [6], 59.87%; in the experiment with PANC-1 [7], 7.35%. Moreover, the Activity in the experiment with PANC-1 [17] was 1.9%; in the experiment with PANC-1 [9], 16.5%; with PANC-1 [10] it was 4.6%; in the experiment on PANC-1 [12] it was 5.5%; in the experiment on PANC-1 [13], 27.2%; with PANC-1 [14] it was 7.5%. Also, the Activity result with PANC-1 [15] and in the experiment on PANC-1 [16] was “Dose-Dependent Effect” in each case. Besides, in the experiment on PANC-1 [8], the viability at 5 µM came to 76.7%. The viability at 10 µM in the experiment on PANC-1 [11] was determined as 60.3%.
For the compound `O=[N+]([O-])c1ccc(/C=C/c2nnc(-c3[nH]nc4c3Cc3ccccc3-4)o2)cc1`, the IC50 in the experiment with MCF7 stood at 41.9 µM; in the experiment with MDA-MB-231, 18.5 µM; in the experiment with PANC-1 [1], 18.3 µM; in the experiment with Caco-2 it was 17.7 µM; with MRC5, 66 µM.
The corresponding values for `COc1ccc(/C=C/c2nnc(-c3[nH]nc4c3Cc3cc(OC)ccc3-4)o2)cc1` are 60.2 µM, 16.6 µM, 17.4 µM, 10.6 µM and 54 µM.
Take `COc1ccc(/C=C/c2nnc(-c3[nH]nc4c3Cc3cc(OC)c(OC)cc3-4)o2)cc1OC`: the IC50 was 14.5 µM in the experiment with MCF7; 23.2 µM in the experiment on MDA-MB-231; above 100 µM in the experiment on PANC-1 [1]; 22.7 µM with Caco-2; 63 µM in the experiment on MRC5.
As to `Nc1ccn([C@@H]2O[C@H](CO)[C@@H](O)C2(F)F)c(=O)n1` [GEMCITABINE], the IC50 in the experiment on MCF7 was 6.1 µM; with MDA-MB-231 it was 8 µM; in the experiment with PANC-1 [1] it was 4.2 µM; with Caco-2 it was 9.4 µM; with MRC5 it was 80 µM.
With `COc1ccc(/C=C/c2nnc(-c3[nH]nc4c3Cc3cc(F)ccc3-4)o2)cc1`, the concentration for half-maximal inhibition (IC50) in the experiment with MCF7 worked out at 63.8 µM; in the experiment with MDA-MB-231 it was 37.2 µM; in the experiment with PANC-1 [1], 39.9 µM; in the experiment with Caco-2 it was 15.6 µM; with MRC5, 52 µM.
`COc1ccc(/C=C/c2nnc(-c3[nH]nc4c3Cc3cc(OC)c(OC)cc3-4)o2)cc1`: the half-maximal inhibitory concentration (IC50) in the experiment with MCF7 is 10.1 µM; in the experiment on MDA-MB-231, 25 µM; with PANC-1 [1], 27.3 µM; in the experiment with Caco-2, 14.9 µM; in the experiment on MRC5, 89 µM.
For the compound `COc1ccc(/C=C/c2nnc(-c3[nH]nc4c3Cc3ccccc3-4)o2)cc1OC`, the IC50 in the experiment with MCF7 came to 56.2 µM; in the experiment with MDA-MB-231, 26 µM; with PANC-1 [1], 36.4 µM; with Caco-2, 22.8 µM; in the experiment with MRC5, 63 µM.
As for `COc1cc2c(cc1OC)-c1n[nH]c(-c3nnc(/C=C/c4cc(OC)c(OC)c(OC)c4)o3)c1C2`, the IC50 came out at 14.4 µM in the experiment with MCF7; 13.5 µM in the experiment with MDA-MB-231; 18.4 µM in the experiment with PANC-1 [1]; 57.4 µM in the experiment with Caco-2; 77 µM in the experiment with MRC5.
Turning to `COc1cc2c(cc1OC)-c1n[nH]c(-c3nnc(/C=C/c4ccccc4)o3)c1C2`, the IC50 worked out at 32.9 µM in the experiment on MCF7; 11.5 µM in the experiment with MDA-MB-231; 30.9 µM in the experiment with PANC-1 [1]; 15 µM with Caco-2; 65 µM in the experiment on MRC5.
With `O=[N+]([O-])c1ccc(/C=C/c2nnc(-c3[nH]nc4c3Cc3cc(F)ccc3-4)o2)cc1`, the concentration for half-maximal inhibition (IC50) in the experiment on MDA-MB-231 was 21.9 µM; with PANC-1 [1], 16.8 µM; in the experiment with Caco-2, above 100 µM; in the experiment with MRC5, 89 µM.
Consider `C(=C\c1nnc(-c2[nH]nc3c2Cc2ccccc2-3)o1)/c1ccccc1`, for which the 50% inhibitory concentration (IC50) is 22.7 µM in the experiment on MCF7; 18.7 µM with MDA-MB-231; above 50 µM with PANC-1 [1]; 14.8 µM with Caco-2; 45 µM in the experiment on MRC5.
On the same counts, the results for `COc1ccc(/C=C/c2nnc(-c3[nH]nc4c3Cc3cc(F)ccc3-4)o2)cc1OC` are 18.1 µM, 17.6 µM, 23 µM, 18.7 µM and 58 µM.
As to `Fc1ccc2c(c1)Cc1c-2n[nH]c1-c1nnc(/C=C/c2ccccc2)o1`, the half-maximal inhibitory concentration (IC50) in the experiment on MCF7 came out at 60.4 µM; in the experiment with MDA-MB-231 it was 18 µM; with PANC-1 [1], 21.5 µM; in the experiment on Caco-2 it was 15.9 µM; with MRC5, 66 µM.
On the same counts, the results for `COc1ccc2c(c1)Cc1c-2n[nH]c1-c1nnc(/C=C/c2ccccc2)o1` are 67.6 µM, 12.8 µM, 26 µM, 13.1 µM and 65 µM.
